The conditions of data set [1]: intrinsic aqueous solubility; Int. J. Pharmaceutics 2020, 589, 119812; cited from earlier work.
The next data set can be described thus: physchem. Conditions: aqueous medium, thermodynamic from solid, room temperature.
The mark [2] stands for this setting: Solubility (mg/mL) CBD/CBG equivalent, expressed as CBD/CBG equivalent.
Where [3] appears, read: Solubility (mg/mL) Salt derivative, expressed as salt derivative.

Procedure for physchem: The thermodynamic aqueous solubility of CBD and CBG glycine conjugates in salt forms was determined using the equilibrium shake method outlined in the United States Pharmacopeia (USP) General Chapter <1236>Solubility Measurements (Table 1).

With `C=C(C)[C@@H]1CCC(C)=C[C@H]1c1c(O)cc(CCCCC)cc1O` [CBD, cannabidiol], the “solubility of CBD” value in data set [1] is 0.1 µg/mL. The solubility is how much of the substance goes into solution per volume. On to `C=C(C)[C@@H]1CCC(C)=C[C@H]1c1c(O)cc(CCCCC)cc1OC(=O)NCC(=O)[O-].[Na+]` [Example 3, Sodium ((((1′R,2′R)-6-hydroxy-5′-methyl-4-pentyl-2′-(prop-1-en-2-yl)-1′,2′,3′,4′-tetrahydro-[1,1′-biphenyl]-2-yl)oxy)carbonyl)glycinate], for which the solubility in the data set “physchem” (setting [2]) stood at 3140 µg/mL; in the data set “physchem” (setting [3]), 4370 µg/mL.

Consider `CCCCCc1cc(O)c(C/C=C(\C)CCC=C(C)C)c(OC(=O)NCC(=O)[O-])c1.[Na+]` [Example 10, Sodium (E)-((2-(3,7-dimethylocta-2,6-dien-1-yl)-3-hydroxy-5-pentylphenoxy)carbonyl)glycinate], for which the solubility in the data set “physchem” (setting [2]) came out at 10000 µg/mL; in the data set “physchem” (setting [3]) it was 13300 µg/mL.

(Values after patent publication US20250121067A1, “WATER-SOLUBLE CANNABINOID PRODRUGS COMPOSITIONS AND METHODS OF SYNTHESIZING THE SAME” (Trait Biosciences, Inc., priority 2022, published 2025).)
